Assay results published in ChEMBL document CHEMBL1159252, “Flavonoid inhibitors of trypsin and leucine aminopeptidase: a proposed mathematical model for IC50 estimation” (J Nat Prod, 1995).

Columns and labels:
[1] = Inhibition of bovine pancreas trypsin; set-up: species or system Bos taurus
Cytosol aminopeptidase = target: T1, Cytosol aminopeptidase (Sus scrofa, UniProt P28839); test: Inhibition of pig kidney cytosolic Leucyl aminopeptidase
T1 sequence (P28839 whole entry): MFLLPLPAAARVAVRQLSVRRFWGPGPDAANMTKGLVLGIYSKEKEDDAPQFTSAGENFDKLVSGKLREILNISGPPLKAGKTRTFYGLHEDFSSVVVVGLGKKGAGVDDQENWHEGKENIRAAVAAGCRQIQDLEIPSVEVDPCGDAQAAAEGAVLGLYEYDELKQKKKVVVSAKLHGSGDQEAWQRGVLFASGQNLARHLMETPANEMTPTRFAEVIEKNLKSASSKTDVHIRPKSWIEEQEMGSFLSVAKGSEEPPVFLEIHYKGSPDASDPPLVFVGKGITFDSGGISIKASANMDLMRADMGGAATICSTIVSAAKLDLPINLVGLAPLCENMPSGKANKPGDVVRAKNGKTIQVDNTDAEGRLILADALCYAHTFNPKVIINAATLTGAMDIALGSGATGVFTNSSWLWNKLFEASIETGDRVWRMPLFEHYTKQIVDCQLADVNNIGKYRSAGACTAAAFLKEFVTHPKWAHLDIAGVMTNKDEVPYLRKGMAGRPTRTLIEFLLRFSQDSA

| IC50 [1] | SMILES | IC50 (Cytosol aminopeptidase) |
| --- | --- | --- |
| 106 µM | O=c1c(O)c(-c2ccc(O)cc2)oc2cc(O)cc(O)c12 [KAEMPFEROL] |  |
| 10.2 µM | O=c1c(O)c(-c2cc(O)c(O)c(O)c2)oc2cc(O)cc(O)c12 [MYRICETIN] |  |
| 144 µM | COc1cc(C2Oc3c(O)cc([C@H]4Oc5cc(O)cc(O)c5C(=O)[C@@H]4O)cc3C2CO)ccc1O (stereo not given in full) [SILICRISTIN] |  |
| 111 µM | O=c1c(O)c(-c2ccc(O)cc2O)oc2cc(O)cc(O)c12 [MORIN] |  |

Further lines, the molecule ahead of its results:

| SMILES | IC50 [1] | IC50 (Cytosol aminopeptidase) |
| --- | --- | --- |
| O=c1cc(-c2ccc(O)c(O)c2)oc2ccccc12 |  | 35.1 µM |
| O=c1cc(-c2ccc(O)cc2)oc2cc(O)cc(O)c12 [APIGENIN] | 142 µM |  |
| O=c1cc(-c2ccc(O)c(O)c2)oc2cc(O)cc(O)c12 [LUTEOLIN] | 35.3 µM | 49.6 µM |
| O=c1c(O)c(-c2ccc(O)c(O)c2)oc2cc(O)cc(O)c12 [QUERCETIN] | 7.1 µM | 34.3 µM |
